Measurements published in patent US10294202B2, “Pyrrolidinones as herbicides” (FMC Corporation, priority 2013, dated 2019).

Key:
[1] = system: kochia; assay: Test C pre-/postemergence herbicide test; assay type: in vivo, Kochia scoparia
Text: Seeds of plant species selected from blackgrass (Alopecurus myosuroides), ryegrass, Italian (Italian ryegrass, Lolium multiflorum), wheat (winter wheat, Triticum aestivum), galium (catchweed bedstraw, Galium aparine), corn (Zea mays), crabgrass, large (large crabgrass, Digitaria sanguinalis), foxtail, giant (giant foxtail, Setaria faberii), johnsongrass (Sorghum halepense), lambsquarters (Chenopodium album), morningglory (Ipomoea coccinea), nutsedge, yellow (yellow nutsedge, Cyperus esculentus), pigweed (Amaranthus retroflexus), ragweed (common ragweed, Ambrosia elatior), soybean (Glycine max), barnyardgrass (Echinochloa crus-galli), oilseed rape (Brassica napus), waterhemp (common waterhemp, Amaranthus rudis), kochia (Kochia scoparia), oat, wild (wild oat, Avena fatua), surinam grass (Brachiaria decumbens), foxtail, green (green foxtail, Setaria viridis), goosegrass (Eleusine indica), bromegrass, downy (downy bromegrass, Bromus tectorum), nightshade (eastern black nightshade, Solanum ptycanthum), cocklebur (common cocklebur, Xanthium strumarium), cupgrass, woolly (woolly cupgrass, Eriochloa villosa), bermudagrass (Cynodon dactylon), sunflower, (common oilseed sunflower, Helianthus annuus), Russian thistle (Salsola kali) and velvetleaf (Abutilon theophrasti) were planted into a blend of loam soil and sand and treated preemergence with test chemicals formulated in a non-phytotoxic solvent mixture which included a surfactant. At the same time, plants selected from these crop and weed species and also barley (winter barley, Hordeum vulgare), […]), chickweed (common chickweed, Stellaria media), deadnettle (henbit deadnettle, Lamium amplexicaule), and canarygrass (littleseed canarygrass, Phalaris minor) were planted in pots containing Redi-Earth® planting medium (Scotts Company, 14111 Scottslawn Road, Marysville, Ohio 43041) comprising spaghnum peat moss, vermiculite, wetting agent and starter nutrients and treated with postemergence applications of test chemicals formulated in the same manner. Plants ranged in height from 2 to 18 cm (1- to 4-leaf stage) for postemergence treatments. Treated plants and controls were maintained in a greenhouse for 13 to 15 days, after which time all species were compared to controls and visually evaluated. Plant response ratings, summarized in Table C, are based on a scale of 0 to 100 where 0 is no effect and 100 is complete control. A dash (-) response means no test result.

[2] = system: foxtail, giant; assay: Test E preemergence herbicide test; assay type: in vivo, Setaria faberii; set-up: key: 0 = no effect, 100 = complete control
Text: (§1) Seeds of plant species selected from corn (Zea mays), soybean (Glycine max), velvetleaf (Abutilon theophrasti), lambsquarters (Chenopodium album), wild poinsettia (Euphorbia heterophylla), pigweed, palmer (palmer pigweed, Amaranthus palmeri), waterhemp (common waterhemp, Amaranthus rudis), surinam grass (Brachiaria decumbens), crabgrass, large (large crabgrass, Digitaria sanguinalis), crabgrass, Brazil (Brazilian crabgrass, Digitaria horizontalis), panicum, fall (fall panicum, Panicum dichotomiflorum), foxtail, giant (giant foxtail, Setaria faberii), foxtail, green (green foxtail, Setaria viridis), goosegrass (Eleusine indica), johnsongrass (Sorghum halepense), ragweed (common ragweed, Ambrosia elatior), barnyardgrass (Echinochloa crus-galli), sandbur (southern sandbur, Cenchrus echinatus), arrowleaf […] rhombifolia), ryegrass, Italian (Italian ryegrass, Lolium multiflorum), dayflower, VA (Virginia dayflower, Commelina virginica), field bindweed (Convolvulus arvensis), morningglory (Ipomoea coccinea), nightshade (eastern black nightshade, Solanum ptycanthum), kochia (Kochia scoparia), nutsedge, yellow (yellow nutsedge, Cyperus esculentus), cocklebur (common cocklebur, Xanthium strumarium), smartweed (ladysthumb smartweed, Polygonum Persicaria) and beggarticks (hairy beggarticks, Bidens pilosa), were planted into a silt loam soil and treated preemergence with test chemicals formulated in a non-phytotoxic solvent mixture which included a surfactant. Treated plants and controls were maintained in a greenhouse for 21 days, after which time all species were compared to controls and visually evaluated. Plant response ratings, summarized in Table E, are based on a scale of 0 to 100 where 0 is no effect and 100 is complete control. A dash (-) response means no test result.

[3] = system: goosegrass; assay: Test E preemergence herbicide test; assay type: in vivo, Eleusine indica; set-up: key: 0 = no effect, 100 = complete control
Text: as §1

[4] = system: ragweed; assay: Test E preemergence herbicide test; assay type: in vivo, Ambrosia elatior; set-up: key: 0 = no effect, 100 = complete control
Text: as §1

[5] = system: dayflower, VA; assay: Test E preemergence herbicide test; assay type: in vivo, Commelina virginica; set-up: key: 0 = no effect, 100 = complete control
Text: as §1

[6] = system: canarygrass; assay: Test D pre-/postemergence herbicide test; assay type: in vivo, Phalaris minor; conditions: for Plant response rating: Canarygrass, scale 0 to 100; for Plant response rating, Canarygrass: scale 0 to 100 (0 no effect, 100 complete control)
Text: Seeds of plant species selected from bluegrass (annual bluegrass, Poa annua), blackgrass (Alopecurus myosuroides), canarygrass (littleseed canarygrass, Phalaris minor), chickweed (common chickweed, Stellaria media), galium (catchweed bedstraw, Galium aparine), bromegrass, downy (downy bromegrass, Bromus tectorum), field poppy (Papaver rhoeas), field violet (Viola arvensis), foxtail, green (green foxtail, Setaria viridis), deadnettle (henbit deadnettle, Lamium amplexicaule), ryegrass, Italian (Italian ryegrass, Lolium multiflorum), kochia (Kochia scoparia), lambsquarters (Chenopodium album), oilseed rape (Brassica napus), pigweed (Amaranthus retroflexus), chamomile (scentless chamomile, Matricaria inodora), Russian thistle (Salsola kali), speedwell (bird's-eye speedwell, Veronica persica), barley, spring (spring barley, Hordeum vulgare), wheat, spring (spring wheat, Triticum aestivum), buckwheat, wild (wild buckwheat, Polygonum convolvulus), mustard, wild (wild mustard, Sinapis arvensis), oat, wild (wild oat, Avena fatua), radish, wild (wild radish, Raphanus raphanistrum), […]), barley, winter (winter barley, Hordeum vulgare), and wheat, winter (winter wheat, Triticum aestivum) were planted into a silt loam soil and treated preemergence with test chemicals formulated in a non-phytotoxic solvent mixture which included a surfactant. At the same time, these species were planted in pots containing Redi-Earth® planting medium (Scotts Company, 14111 Scottslawn Road, Marysville, Ohio 43041) comprising spaghnum peat moss, vermiculite, wetting agent and starter nutrients and treated with postemergence applications of the test chemicals formulated in the same manner. Plants ranged in height from 2 to 18 cm (1- to 4-leaf stage). Treated plants and controls were maintained in a controlled growth environment for 7 to 21 days after which time all species were compared to controls and visually evaluated. Plant response ratings, summarized in Table D, are based on a scale of 0 to 100 where 0 is no effect and 100 is complete control. A dash (-) response means no test result.

[7] = Preemergence, 62 g ai/ha, scale 0 to 100
[8] = Preemergence, 125 g ai/ha, scale 0 to 100 (0 no effect, 100 complete control)
[9] = Postemergence, 125 g ai/ha, scale 0 to 100 (0 no effect, 100 complete control)
[10] = Postemergence, 250 g ai/ha, scale 0 to 100 (0 no effect, 100 complete control)

| Compound | Plant response rating, Kochia [1, 7] | Plant response rating, Kochia [1, 8] | Plant response rating, Foxtail, Giant ([2]; 16 g ai/ha) | Plant response rating, Foxtail, Giant ([2]; 31 g ai/ha) | Plant response rating, Foxtail, Giant ([2]; 62 g ai/ha) | Plant response rating, Foxtail, Giant ([2]; 125 g ai/ha) | Plant response rating, Foxtail, Giant ([2]; 250 g ai/ha) | Plant response rating, Goosegrass ([3]; 16 g ai/ha) | Plant response rating, Goosegrass ([3]; 31 g ai/ha) | Plant response rating, Goosegrass ([3]; 62 g ai/ha) | Plant response rating, Goosegrass ([3]; 125 g ai/ha) | Plant response rating, Goosegrass ([3]; 250 g ai/ha) | Plant response rating, Ragweed ([4]; 31 g ai/ha) | Plant response rating, Ragweed ([4]; 62 g ai/ha) | Plant response rating, Ragweed ([4]; 125 g ai/ha) | Plant response rating, Ragweed ([4]; 250 g ai/ha) | Plant response rating, Dayflower, VA ([5]; 31 g ai/ha) | Plant response rating, Dayflower, VA ([5]; 62 g ai/ha) | Plant response rating, Dayflower, VA ([5]; 125 g ai/ha) | Plant response rating, Dayflower, VA ([5]; 250 g ai/ha) | further results |
| --- | --- | --- | --- | --- | --- | --- | --- | --- | --- | --- | --- | --- | --- | --- | --- | --- | --- | --- | --- | --- | --- |
| O=C1NCC(c2ccc(Cl)c(Cl)c2)C1C(=O)Nc1ccccc1F (racemic) [Compound 14] | 0 | 0 | 0 | 0 | 0 | 10 | 90 | 0 | 0 | 0 | 0 | 0 | 0 | 0 | 0 | 0 | 0 | 0 | 0 | 0 | Plant response rating, Ragweed ([4]; 16 g ai/ha): 0; Plant response rating, Dayflower, VA ([5]; 16 g ai/ha): 0 |
| O=C1NCC(c2ccc(C(F)(F)F)cc2)C1C(=O)Nc1cccc(F)c1F (racemic) [Compound 202] |  |  |  | 35 | 50 | 95 | 98 |  | 35 | 70 | 90 | 98 | 20 | 80 | 85 | 90 | 0 | 0 | 0 | 40 | Plant response rating, Kochia ([1]; Postemergence, 31 g ai/ha, scale 0 to 100 (0 no effect, 100 complete control)): 70; Plant response rating, Kochia ([1]; Postemergence, 62 g ai/ha, scale 0 (no effect) to 100 (complete control)): 75; Plant response rating, Kochia [1, 9]: 80; Plant response rating, Kochia [1, 10]: 80; Plant response rating ([6]; Postemergence, 31 g ai/ha): 0; Plant response rating ([6]; Postemergence, 62 g ai/ha): 0; Plant response rating ([6]; Postemergence, 125 g ai/ha): 0; Plant response rating ([6]; Postemergence, 250 g ai/ha): 0; Plant response rating, Canarygrass ([6]; Preemergence, 62 g ai/ha): 10; Plant response rating, Canarygrass ([6]; Preemergence, 31 g ai/ha): 5; Plant response rating ([6]; Preemergence, 125 g ai/ha): 60; Plant response rating ([6]; Preemergence, 250 g ai/ha): 75 |
| O=C1NCC(c2ccc(OC(F)F)cc2)C1C(=O)Nc1cccc(F)c1F (racemic) [Compound 350] |  |  |  | 0 | 20 | 50 | 80 |  | 0 | 0 | 0 | 25 | 0 | 0 | 60 | 65 | 0 | 0 | 0 | 40 |  |
| O=C1NCC(c2ccc(F)c(F)c2)C1C(=O)Nc1cccc(F)c1F (stereo not shown) [Compound 17, N-(2,3-difluorophenyl)-4-(3,4-difluorophenyl)-2-oxo-3-pyrrolidinecarboxamide] | 50 | 60 | 0 | 35 | 35 | 95 | 98 | 0 | 0 | 0 | 0 | 35 | 0 | 0 | 0 | 0 | 0 | 0 | 0 | 0 | Plant response rating, Kochia ([1]; Postemergence, 31 g ai/ha, scale 0 (no effect) to 100 (complete control)): 0; Plant response rating, Kochia ([1]; Postemergence, 62 g ai/ha, scale 0 to 100 (0 no effect, 100 complete control)): 0; Plant response rating, Kochia [1, 9]: 0; Plant response rating, Kochia [1, 10]: 5; Plant response rating ([6]; Postemergence, 16 g ai/ha): 0; Plant response rating ([6]; Postemergence, 31 g ai/ha): 0; Plant response rating ([6]; Postemergence, 62 g ai/ha): 0; Plant response rating ([6]; Postemergence, 125 g ai/ha): 0; Plant response rating ([6]; Postemergence, 250 g ai/ha): 0; Plant response rating, Ragweed ([4]; 16 g ai/ha): 0; Plant response rating, Dayflower, VA ([5]; 16 g ai/ha): 0 |
